Among the data in PMC6792352, “Limited Chemical Structural Diversity Found to Modulate Thyroid Hormone Receptor in the Tox21 Chemical Library” (Environmental Health Perspectives, 2019) are CC50 values, retold here.

This data set in a line: in vitro. To be noted: rat, gh3-tre-luc cells.

Where a name gives a salt, the structure may show the parent alone.

Regarding `CCOC(=O)C(Br)c1ccccc1` (stereo not shown) [Ethyl bromophenylacetate], the CC50 (as a rule, the concentration at which the toxic effect on the cells reaches its halfway point) at 24 h (AC50 (uM) modified / 1000) is > 90 µM. Still for that read-out and setting: for `CN(C)CCCN(C)CCCN(C)C` [2,6,10-Trimethyl-2,6,10-triazaundecane] the value was > 90 µM; for `CCCCc1ccc(N)cc1` [4-Butylaniline], > 90 µM. Still for that read-out and setting: for `O=c1c(O)c(O)c1=O` [Squaric acid] the value was > 90 µM. Still for that read-out and setting: for `C[C@@H]1C[C@H]2[C@@H]3CCC4=CC(=O)C=C[C@]4(C)[C@@]3(Cl)[C@@H](O)C[C@]2(C)[C@@]1(OC(=O)c1ccco1)C(=O)CCl` [Mometasone furoate] the value was > 20 µM. In the case of `CC(O)C1CCCCC1` (stereo not shown) [1-Cyclohexylethanol], under “AC50 (uM) modified / 1000”, the CC50 at 24 h was > 90 µM. The same measure, in the same setting: for `NCc1ccccc1Sc1ccccc1CO` [Bipenamol] the value was > 50 µM. The same measure, in the same setting: then `CCC(=O)OCC(=O)[C@@]1(OC(=O)CC)[C@@H](C)C[C@H]2[C@@H]3CCC4=CC(=O)C=C[C@]4(C)[C@@]3(Cl)[C@@H](O)C[C@@]21C` [Beclazone], with > 50 µM; and `Oc1nc2ccc(Cl)cc2o1` [6-Chloro-2,3-dihydrobenzoxazol-2-one], with > 90 µM. As for `C1CC2OC2CC1C1CO1` (stereo not shown) [4-Vinyl-1-cyclohexene dioxide], the CC50 at 24 h (AC50 (uM) modified / 1000, Tox21_110001=Tox21_201505, viability, 1 nM T3 present, 24 h) is > 90 µM. Regarding `c1ccc2c(c1)[nH]c1cnccc12` [Norharman], where the note is “AC50 (uM) modified / 1000”, the CC50 at 24 h was > 90 µM. On the same count and under the same terms, for `CN1C(=O)N(c2ccccc2Br)Cc2cnc(Nc3ccc4c(c3)OCC(CO)O4)nc21` (stereo not shown) [PharmaGSID_48519] the value was 37.2 µM. For `O=C(O)C(F)(F)C(F)(F)C(F)(F)C(F)(F)C(F)(F)C(F)(F)C(F)(F)F` [Ammonium perfluorooctanoate], the CC50 at 24 h (AC50 (uM) modified / 1000, Tox21_110001=Tox21_300595, viability, 1 nM T3 present, 24 h) is > 90 µM.

As for `CCOC(=O)Cc1cccc2ccccc12` [Ethyl 1-naphthaleneacetate], under “AC50 (uM) modified / 1000”, the CC50 at 24 h was > 90 µM. Same read-out and setting: for `COc1cc(CCC(C)=O)ccc1O` [4-(4-Hydroxy-3-methoxyphenyl)-2-butanone] the value was > 90 µM; for `C[C@@H](N)C(=O)O` [D-Alanine], > 50 µM. On the same count and under the same terms, then `COc1c(N2C[C@@H]3CCCN[C@@H]3C2)c(F)cc2c(=O)c(C(=O)O)cn(C3CC3)c12` [Moxifloxacin hydrochloride], with > 50 µM.

As for `Cc1ccccc1C(=O)O` [2-Methylbenzoic acid], where the note is “AC50 (uM) modified / 1000”, the CC50 at 24 h is > 90 µM.

Take `Cl/C=C/Cl` [(E)-1,2-Dichloroethylene]: for the setting “AC50 (uM) modified / 1000, Tox21_110001=Tox21_202419, viability, 1 nM T3 present, 24 h”, the CC50 at 24 h is > 90 µM. Consider `CCCCOC(=O)/C=C\C(=O)OCCCC` [Dibutyl maleate], for which the CC50 at 24 h (AC50 (uM) modified / 1000) is > 90 µM.

As to `CCCCCCCCCCN` [1-Decanamine], the CC50 at 24 h (AC50 (uM) modified / 1000) is > 90 µM. As to `O=C1CCC(c2ccccc2)(C2CCN(Cc3ccccc3)CC2)C(=O)N1` (stereo not shown) [Benzetimide], for the setting “AC50 (uM) modified / 1000”, the CC50 at 24 h was > 50 µM. For `OC[C@@H](O)[C@H](O)[C@H](O)[C@@H](O)CO` [D-Galactitol], the CC50 at 24 h (AC50 (uM) modified / 1000) is > 50 µM. Same read-out and setting: for `C=CCOc1ccccc1OCC(O)CNC(C)C` (stereo not shown) [Oxprenolol hydrochloride] the value was > 20 µM; for `O=C(O)COc1nc(Cl)c(Cl)cc1Cl` [Triclopyr], > 90 µM; for `CCC(CO)(CO)CO` [2-Ethyl-2-(hydroxymethyl)-1,3-propanediol], > 100 µM. The same measure, in the same setting: then `CCOC(=O)C1=C(COCCN)NC(C)=C(C(=O)OC)C1c1ccccc1Cl` (stereo not shown) [Amlodipine besylate], with 19.7 µM; and `Cc1cc(N)n(-c2ccccc2)n1` [3-Methyl-1-phenyl-1H-pyrazol-5-amine], with > 90 µM. For `COC(=O)c1sccc1S(=O)(=O)NC(=O)Nc1nc(C)nc(OC)n1` [Thifensulfuron-methyl], the CC50 at 24 h (AC50 (uM) modified / 1000) is > 90 µM. The same measure, in the same setting: then `CN/C(=N/CC1CCOC1)N[N+](=O)[O-]` (stereo not shown) [Dinotefuran], with > 90 µM; and `OCCc1ccncc1` [2-(Pyridin-4-yl)ethanol], with > 90 µM; and `C[N+](C)(C)CC1CO1` (stereo not shown) [Glycidyl trimethylammonium chloride], with > 90 µM. Same read-out and setting: then `CCCCCCCCCCCCCCCCO` [1-Hexadecanol], with > 90 µM.

`OCCOC[C@H]1O[C@H](OCCO)[C@H](OCCO)[C@@H](OCCO)[C@@H]1OCCO` [Hydroxyethyl starch]: where the note is “AC50 (uM) modified / 1000”, the CC50 at 24 h was > 50 µM. Under “AC50 (uM) modified / 1000, Tox21_110001=Tox21_200686, viability, 1 nM T3 present, 24 h”, `COc1ccc2c(c1OC)C(=O)O[C@@H]2[C@H]1c2cc3c(cc2CCN1C)OCO3` [Hydrastine] registered a CC50 at 24 h of 6.92 µM. With `CCC1C(C)=NN=C(c2ccc(OC)c(OC)c2)c2cc(OC)c(OC)cc21` (stereo not shown) [Tofisopam], the CC50 at 24 h (AC50 (uM) modified / 1000) is > 50 µM. The same measure, in the same setting: then `CNCc1cc(F)ccc1Oc1ccc(Cl)c(Cl)c1` [CP-607366], with 77.7 µM; and `CCCCCSCCCCC` [Pentyl sulfide], with > 90 µM.

On to `CCOc1ccccc1O` [2-Ethoxyphenol], for which, under “AC50 (uM) modified / 1000”, the CC50 at 24 h was > 90 µM. `CC(C)NCC1CCc2cc(CO)c([N+](=O)[O-])cc2N1` (stereo not shown) [Oxamniquine]: where the note is “AC50 (uM) modified / 1000”, the CC50 at 24 h is > 20 µM.

Turning to `CCCCN(CCCC)C(=O)N(CCCC)CCCC` [1,1,3,3-Tetrabutylurea], the CC50 at 24 h (AC50 (uM) modified / 1000) was > 90 µM. Turning to `O=C(CCCN1CCC2(CC1)C(=O)NCN2c1ccccc1)c1ccc(F)cc1` [Spiperone], the CC50 at 24 h (AC50 (uM) modified / 1000) is 14.1 µM. For the compound `Oc1c(Cl)ccc(Cl)c1Cl` [2,3,6-Trichlorophenol], the CC50 at 24 h (AC50 (uM) modified / 1000) is > 90 µM. Same read-out and setting: then `C(=C\c1ccccc1)/c1ccccc1` [trans-Stilbene], with > 100 µM.

Turning to `Clc1ccc(C(c2ccc(Cl)cc2)C(Cl)(Cl)Cl)cc1` [p,p'-DDT], the CC50 at 24 h is, setting by setting: (AC50 (uM) modified / 1000, Tox21_110001=Tox21_111076, viability, 1 nM T3 present, 24 h) 19.5 µM; (AC50 (uM) modified / 1000, Tox21_110001=Tox21_201495, viability, 1 nM T3 present, 24 h) 44.8 µM; (AC50 (uM) modified / 1000, Tox21_110001=Tox21_300067, viability, 1 nM T3 present, 24 h) 28.7 µM.

Turning to `CC(=O)Oc1ccc(C(c2ccc(OC(C)=O)cc2)c2ccccn2)cc1` [Bisacodyl], the CC50 at 24 h (AC50 (uM) modified / 1000) was > 90 µM.

`Cc1cc(C)c(S(=O)(=O)O)cc1N=Nc1cc(S(=O)(=O)O)c2ccccc2c1O` [FD&C Red 4]: the CC50 at 24 h (AC50 (uM) modified / 1000) was 33.6 µM. On the same count and under the same terms, then `O=C(/C=C/c1ccc(O)c(O)c1)O[C@@H]1C[C@](O)(C(=O)O)C[C@@H](O)[C@H]1O` [Chlorogenic acid], with > 90 µM; and `ClC1=C(Cl)C1(Cl)Cl` [Tetrachlorocyclopropene], with > 90 µM; and `CN(C)[C@@H]1C(O)=C(C(N)=O)C(=O)[C@@]2(O)C(O)=C3C(=O)c4c(O)ccc(Cl)c4[C@@H](O)[C@H]3C[C@@H]12` [Demeclocycline hydrochloride], with > 50 µM. Still for that read-out and setting: for `CCOC(=O)[C@H](CS)NCCN[C@@H](CS)C(=O)OCC` [Bicisate dihydrochloride] the value was > 50 µM; for `C1=C\CC/C=C/CC/C=C/CC/1` [1,5,9-Cyclododecatriene], > 90 µM. For `C#CC(C)(O)CC` (stereo not shown) [3-Methyl-1-pentyn-3-ol], the CC50 at 24 h (AC50 (uM) modified / 1000, Tox21_110001=Tox21_112294, viability, 1 nM T3 present, 24 h) is > 50 µM. For the compound `c1ccc2c(c1)cc1ccc3cccc4ccc2c1c34` [Benzo(a)pyrene], the CC50 at 24 h (AC50 (uM) modified / 1000) was > 90 µM. On the same count and under the same terms, then `C#C[C@]1(O)CC[C@H]2[C@@H]3CCC4=CC(=NO)CC[C@@H]4[C@H]3CC[C@@]21CC` [Norelgestromin], with 35.1 µM; and `CN(C)C(C)(C)CO` [2-(Dimethylamino)-2-methylpropan-1-ol], with > 90 µM. Same read-out and setting: for `Cc1ncsc1CCO` [Thiamine thiozole] the value was > 90 µM; for `ON(Cc1ccccc1)Cc1ccccc1` [N-Benzyl-N-hydroxy-1-phenylmethanamine], > 90 µM; for `CN(C)CCN(Cc1ccccc1)c1ccccn1` [Tripelennamine citrate], > 50 µM. For the compound `CC(=O)OCC(=O)[C@@]1(O)[C@H](C)C[C@H]2[C@@H]3C[C@H](F)C4=CC(=O)C=C[C@]4(C)[C@H]3[C@@H](O)C[C@@]21C` [Paramethasone acetate], the CC50 at 24 h (AC50 (uM) modified / 1000) was > 50 µM.

In the case of `C[N+](C)(CCOc1ccccc1)Cc1cccs1` [Dimethyl(2-phenoxyethyl)-2-thenylammonium iodide], the CC50 at 24 h (AC50 (uM) modified / 1000) was > 50 µM. With `O=S(=O)(O)C(F)(F)C(F)(F)C(F)(F)C(F)(F)C(F)(F)C(F)(F)C(F)(F)C(F)(F)F` [Perfluorooctanesulfonic acid], the CC50 at 24 h (AC50 (uM) modified / 1000, Tox21_110001=Tox21_400083, viability, 1 nM T3 present, 24 h) was > 90 µM. In the case of `OC1CCCCC1c1ccccc1` (stereo not shown) [2-Phenylcyclohexanol], for the setting “AC50 (uM) modified / 1000”, the half-maximal cytotoxic concentration (CC50) at 24 h is > 90 µM. Still for that read-out and setting: for `CCc1c(C(=O)NN2CCCCC2)nn(-c2ccc(Cl)cc2Cl)c1-c1ccc(Br)cc1` [Surinabant] the value was 12.3 µM. Same read-out and setting: for `O=C(N/N=C/c1ccc([N+](=O)[O-])o1)c1ccc(O)cc1` [Nifuroxazide] the value was > 20 µM. As to `CCCCOCCOC(=O)COc1nc(Cl)c(Cl)cc1Cl` [Triclopyr butotyl], the CC50 at 24 h (AC50 (uM) modified / 1000) is > 90 µM. The same measure, in the same setting: then `CCC(C)NC(N)=O` (stereo not shown) [sec-Butylurea], with > 90 µM. The same measure, in the same setting: for `CN1CCN(c2c(F)cc3c(=O)c(C(=O)O)cn4c3c2SCC4)CC1` [Rufloxacin hydrochloride] the value was > 50 µM; for `COc1cc(N)ccc1C` [3-Methoxy-4-methylaniline], > 90 µM. For the compound `O=c1n(CCO)c(=O)n(CCO)c(=O)n1CCO` [Tris(2-hydroxyethyl) isocyanurate], the CC50 at 24 h (AC50 (uM) modified / 1000) was > 90 µM. Take `CC1(C)S[C@@H]2[C@H](N=CN3CCCCCC3)C(=O)N2[C@H]1C(=O)O` [Amdinocillin]: the CC50 at 24 h (AC50 (uM) modified / 1000) was > 50 µM.
